Source: patent US20130136778A1, “PTEROSTILBENE (PTER) FOR USE IN THE PREVENTION AND/OR TREATMENT OF SKIN DISEASES, DAMAGES OR INJURIES” (GREEN MOLECULAR, S.L., priority 2009, published 2013)

Legend:
SKH-1 mice [1] = test: Experimental psoriasis induced by TPA; type: in vivo
Experimental: For the induction of psoriasis, the agent “12-O-tetradecanoylphorbol-13 acetate” (TPA) was used.
Since our objective was to assess the progress of the lesions caused by psoriasis in combination with the use of polyphenols, a model of continuous exposure and a weaker concentration of TPA were used, on a daily dose of 2 nmoles of TPA over a period of a week, which allowed us to observe the progress of the psoriasis.
The induction was performed with 2 nmol TPA/mouse on an area of 1 cm^2, applying 10 μL of the 200 μM solution in acetone. This application protocol was carried out taking into account that when applying 20 μL as stated in the model, the volume increased considerably and it lost its concentration, therefore it was decided to make it more concentrated.
As a standard treatment, Dexamethasone was used, (from Sigma Solution 25 mM in acetone). The administration of the standard treatment and the products to be tested were given 30 minutes prior to the application of TPA, both beginning on the same day.
The groups, of 6 mice, for this assessment were: • Not treated. • Reference compound: 0.5 μmoles of Dexamethasone (200 μL of one solution 25 mM in acetone). • Medium: 200 μl of vacuumed Liposomes. • Resveratrol: 200 μL of Resveratrol Liposomes (10 μmol in total). • PTER: 200 μL of PTER Liposomes (10 μmol in total). • QUER: 200 μL of QUER Liposomes (10 μmol in total). • PTER+QUER:: 200 μL of PTER Liposomes+QUER (10 μmol in total).
At 24 hours (day 7) after the last administration of the different treatments and TPA, 3 mice from each group were sacrificed and their skin fixed with 4% PFA. The remaining mice were kept under the treatment with no exposure to TPA, to verify if the skin recovered faster on the treatment than on its own. At 24 hours (day 9) after the last administration of the different treatments the rest of the mice were sacrificed and their skin fixed with 4% PFA.
The flaky aspect of the skin was quantified in a scale of 0-3, being 0, nothing; 1, mild; 2, moderate; 3, severe.

[2] = Absorption spectrum of polyphenols (mechanical filter capacity); type: physicochemical; conditions: 1 mM in pure ethanol, 200-800 nm
Experimental: A solution of 1 mM of each polyphenol was prepared (PTER, Resveratrol and QUER) in absolute ethanol (HPLS quality; Quima) and the absorption spectrum was studied between 200 and 800 nm using a Multiskan Spectrum (ThermoScientific).
With the purpose of studying the capacity of the polyphenols used in this study, we decided to evaluate the absorption of light throughout the ultraviolet light spectrum as shown in FIG. 13.

[3] = Asensi et al. 2002; cited from earlier work
SKH-1 mice [4] = test: Anatomopathological study of the skin after chronic exposure to UV-B; type: in vivo; parameters: key to Stroma: Parakeratosis: (+) light; (+++) serious; conditions: after 30 weeks chronic UV-B 180 mJ/cm2
Experimental: Histochemical techniques were used to study the skin tissues of the different procedures, at a microscopic level.
The tissues were fixed in 4% formaldehyde in PBS over 24 h at 22° C. After the tissues were fixed, they had to be dehydrated in large amounts of ethanol and placed in a hydrophobic and xylene mixture to allow the paraffin to penetrate the tissues to provide sufficient consistency for slicing them thinly in a microtome.
The samples in paraffin were processed with the microtome obtaining slices of about 5-10 μm. The samples were spread over a drop of gelatin at 37° C. and were collected in gelatinized slides.
The protocol used for staining the samples was: • 1. Incubation with Mayer's Hematoxylin for 10-15 minutes. • 2. Wash under running water until bluish. • 3. Incubate with Eosin (1%) for 2-4 minutes. • 4. Eliminate the remaining eosin in ethanol 70° • 5. Dehydration. • 6. Rinse with xylol for 3 minutes. • 7. Let the trays dry out on the stove at 37°.
In relation to the histopathological exam of the tumors induced by chronic irradiation to UV in the SKH1 mice, it was confirmed that the treatment with UV-B produced a strong acanthosis due primarily to the inflammatory process; this gave way to the first signs of tumors, mostly of carcinoma type and not melanoma.
Both the reference compounds and the ones subject of this study (10 μmoles/mouse of polyphenols, or 200 μl of each photoprotector) were applied to the back of the mice for 20 minutes prior to their exposure to UV-B. Medium of groups of 20 mice. Every parameter was measured according to the degree of seriousness (+) light-(+++) serious.

SKH-1 mice [5] = test: Thickness of the epidermis after acute UV-B exposure of 360 mJ/cm2; type: in vivo; conditions: FIG. 2, versus group treated only with UV-B
Experimental: UVB Acute exposure protocols were used: Mice underwent a single exposure of 360 mJ/cm2. The study was conducted at 24 hours after exposure. This protocol was used to evaluate the photoprotective effect of the compounds studied. With the same acute-phase protocol mice from all groups were irradiated. Subsequently mice remained in the animal storage area for a week to see the evolution of the inflammatory response and edema. • 1. Edema formation: skinfold thickness was determined with a caliper 24 hours after the first exposure. • 2. Study of the thickness of the epidermis after exposure to acute irradiation (360 mj/cm^2 24 h hours and 7 days after irradiation). • 3. Histological studies: measuring, in the pictures obtained from histological sections, the thickness of the epidermis. For studies of acute exposure skin samples were taken from the back of the mouse. These samples were fixed with 4% paraformaldehyde (24 hours) and embedded in paraffin. Following cutting the samples were stained with hematoxylin and eosin. The two protocols of UV-B exposure used were: • Intense exposure after a single exposure of 360 mJ/cm^2. The study was carried out 24 hours after the exposure. This protocol was used to assess the photoprotective effects of the compounds studied. • Intense exposure after a single exposure of 360 mJ/cm^2. The study was carried out 1 week after the exposure. The mice were kept in the shed for a week to observe the evolution of the inflammatory and edematous response. At 24 hours or 1 week after the administration of the different treatments the mice were sacrificed and their skin fixed with 4% PFA. To measure the thickness of the epidermis to evaluate possible hyperplasia, a computer program was used, Image J, calibrated with the assistance of a Neubauer camera which allowed the measuring of the epidermis. Results obtained were statistically analyzed by ANOVA and contrasted by the Tukey test and grouped according to the significant differences. […] Therefore PTER alone could be used efficiently in the prevention of skin diseases, injuries or damages induced by ultraviolet B radiation. The evaluation of skin thickness was carried out by using computer software (IMAGE J). Results obtained by ANOVA were contrasted by the Tukey test and grouped according to the significant differences. […] Therefore PTER separately could be used efficiently in the prevention of skin diseases, damages or injuries induced by ultraviolet B radiation.

SKH-1 mice [6] = test: Skinfold thickness (edema) after acute UV-B exposure of 360 mJ/cm2; type: in vivo; conditions: FIG. 1
Experimental: UVB Acute exposure protocols were used: Mice underwent a single exposure of 360 mJ/cm2. The study was conducted at 24 hours after exposure. This protocol was used to evaluate the photoprotective effect of the compounds studied. With the same acute-phase protocol mice from all groups were irradiated. Subsequently mice remained in the animal storage area for a week to see the evolution of the inflammatory response and edema. For the UVB exposure studies (chronic or acute) a topical administration to the back of the mouse was conducted. The commercial sunscreens were applied directly on the mouse. The polyphenols in the study were administered in a liposomal preparation diluted 1:1 with Carbopol polymer which will be the vehicle for these liposomes. Each polyphenol dose administered was 10 μmol/mouse, as free acid. • 1. Edema formation: skinfold thickness was determined with a caliper 24 hours after the first exposure. • 2. Study of the thickness of the epidermis after exposure to acute irradiation (360 mj/cm^2 24 h hours and 7 days after irradiation). • 3. Histological studies: measuring, in the pictures obtained from histological sections, the thickness of the epidermis. With the purpose of assessing the effects of the photoprotective compounds studied, female mice SKH-1 of between 6-8 weeks old were subjected to a single exposure of 360 mJ/cm. For the ultraviolet B (UVB) irradiation exposure, a camera specifically prepared, available at our laboratory was used (Crosslinker; Bio-Link BLX 254) equipped with 5 tubes that produce 80% of the UVB radiation, with a maximum emission of 312 nm. The two protocols of UV-B exposure used were: • Intense exposure after a single exposure of 360 mJ/cm^2. The study was carried out 24 hours after the exposure. This protocol was used to assess the photoprotective effects of the compounds studied. • Intense exposure after a single exposure of 360 mJ/cm^2. The study was carried out 1 week after the exposure. The mice were kept in the shed for a week to observe the evolution of the inflammatory and edematous response. As reference, several commercial photoprotective products were used ([…] Heliocare). The reference compounds as well as the products object of this study, were applied on the back of the mice for 20 minutes after or 20 minutes before the irradiation with UV-B, to determine if the reaction observed was due to an effect of the solar filter or not. […] The skinfold was measured by making a fold on the skin from the back of the mice, from the axillae to the hips; the fold was measured with a vernier caliper. The increase in the fold was calculated by the difference between the initial point, before the effects of the reaction, and the thickness in each point.

mice = test: Skinfold after continuous administration of treatments (side effects on skin); type: in vivo; conditions: daily for 6 consecutive days; 10 μmoles/mouse polyphenols, 0.5 μmoles/mouse dexamethasone
Experimental: FIG. 17. […] The application of the treatments 10 μmoles/mouse of polyphenols and 0.5 μmoles/mouse of dexamethasone was performed daily on a third of the back of the mice for 6 consecutive days. The skinfold was measured with the help of a vernier caliper.*p>0.001 with regards to the control. ANOVA followed by a Tukey test.
Prior to evaluating the results of different treatments on different models of dermatitis, the possible side effects of continues administration of polyphenols on the skin of the mice had to be evaluated as shown in FIG. 17. For this purpose, the dose for this daily evaluation was administered over 6 consecutive days.

Structure (SMILES)	increase of skinfold throughout the procedure (SKH-1 mice [1]; FIG. 23, 6 consecutive days, treatment 30 min prior to 2 nmol TPA)	increase in the skinfold 24 hours after the first administration of TPA (SKH-1 mice [1]; FIG. 24, treatment 30 min prior to 2 nmol TPA)	histological analysis of the lesions (SKH-1 mice [1]; FIG. 28, hematoxylin-eosin, TPA daily over 7 days)	absorption of light, range of maximum absorption [2]	bioavailability [3]	Tumor (no/mouse × group) (SKH-1 mice [4]; Table 4, applied 20 min prior)	Stroma: Parakeratosis (SKH-1 mice [4]; degree of seriousness)	thickness of the epidermis 24 hours after irradiation (before or after application) (SKH-1 mice [5])	formation of the edema (thickness of the skin) after severe UV-B exposure (SKH-1 mice [6])	skinfold / structure of the skin after continuous administration (mice)
Oc1ccc(/C=C/c2cc(O)cc(O)c2)cc1 [RESV, 3,4′,5-trihydroxy-trans-stilbene, reference compound]	the evolution was similar with an increase in the formation of edema	did not produce any effect on the increase of the skinfold in comparison to the TPA group	resembles more the group treated with TPA, than the group with PTER	peaks or maximum absorption in the range of Ultraviolet B	low bioavailability	3.8	+	good photoprotection role but not as a repairer	the formation of the edema was reduced	–
C[C@@H]1C[C@H]2[C@@H]3CCC4=CC(=O)C=C[C@]4(C)[C@@]3(F)[C@@H](O)C[C@]2(C)[C@@]1(O)C(=O)CO [dexamethasone]	–	–	–	–	–	–	–	–	–	did have side effects on the structure of the skin
